The structures appear in SMILES notation.

This experiment concerns the target T1, Glk1 (Saccharomyces cerevisiae, UniProt P17709, F3S).
T1 sequence (P17709 1-500 F3S): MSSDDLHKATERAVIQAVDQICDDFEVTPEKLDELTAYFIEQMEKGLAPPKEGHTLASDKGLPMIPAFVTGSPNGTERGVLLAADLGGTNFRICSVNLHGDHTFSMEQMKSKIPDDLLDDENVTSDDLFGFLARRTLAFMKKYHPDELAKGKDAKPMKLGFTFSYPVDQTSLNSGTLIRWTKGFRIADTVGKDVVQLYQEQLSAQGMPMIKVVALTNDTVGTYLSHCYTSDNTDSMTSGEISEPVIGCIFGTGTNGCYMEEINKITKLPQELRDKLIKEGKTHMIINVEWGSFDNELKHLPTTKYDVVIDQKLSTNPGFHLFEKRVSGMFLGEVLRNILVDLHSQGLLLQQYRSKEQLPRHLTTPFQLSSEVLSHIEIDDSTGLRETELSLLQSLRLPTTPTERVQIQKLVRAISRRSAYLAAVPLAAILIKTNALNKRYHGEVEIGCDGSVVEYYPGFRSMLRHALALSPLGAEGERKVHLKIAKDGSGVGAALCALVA
As to the kind of experiment: enzyme activity versus Glk1 concentration. In kind it is biochemical. The following applies: non-polymerizing mutant.

Consider `OC[C@H]1OC(O)[C@H](O)[C@@H](O)[C@@H]1O` (stereo partly shown) [glucose], for which the “enzyme activity versus Glk1 concentration” value is on record as “NonPol-Glk1 was enzymatically active but lacked the concentration-dependent inhibition of wild-type Glk1”.
